# Results published in patent US9695155B2, “Herbicidal substituted pyrimidinyloxy benzene compounds” (E. I. DU PONT DE NEMOURS AND COMPANY, priority 2013, dated 2017).
# Experiments:
# velvetleaf [1] = test: Test A preemergence; format: in vivo, Abutilon theophrasti; details: for Velvetleaf plant response rating (0 to 100 scale) / Plant response rating, Velvetleaf: 125 g ai/ha; for Velvetleaf plant response rating / Plant response rating, Velvetleaf: 0 to 100 scale where 0 is no effect and 100 is complete control
# Method in brief: (§1)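 Pre- and postemergence greenhouse screen. Soil: loam + sand. Spray carrier: solvent mixture, non-phytotoxic, with surfactant. Post timing at 1–2 leaves, height 2–10 cm. Readout: visual injury on a 0–100 scale roughly 10 days after application, untreated plants as reference.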
# corn [2] = test: Test A preemergence; format: in vivo, Zea mays
# Method in brief: as §1
# wheat = test: Test A postemergence; format: in vivo, Triticum aestivum
# Method in brief: as §1
# sedge, umbrella = test: Test B flooded paddy test; format: in vivo, Cyperus difformis; details: Flood, 250 g ai/ha, 0 to 100 scale where 0 is no effect and 100 is complete control
# Method in brief: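 Compound added straight to paddy water, with pots kept flooded 3 cm above soil, on plants grown to the 2-leaf stage. Visual scoring 0-100 (100 = complete control) against untreated controls after 13 to 15 greenhouse days.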
# blackgrass = test: Test C preemergence; format: in vivo, Alopecurus myosuroides
# Method in brief: (§2)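 Visual ratings on a 0–100 scale (100 = complete control) were made versus untreated controls after 13–15 greenhouse days. Chemicals in a surfactant-containing non-phytotoxic solvent were applied either preemergence to seeds in loam–sand soil or postemergence to 1- to 4-leaf plants 2–18 cm tall.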
# corn [3] = test: Test C preemergence; format: in vivo, Zea mays
# From the text: (§3) Seeds of plant species selected from blackgrass (Alopecurus myosuroides), Italian ryegrass (Lolium multiflorum), wheat, winter (winter wheat, Triticum aestivum), galium (catchweed bedstraw, Galium aparine), corn (Zea mays), large (Lg) crabgrass (Digitaria sanguinalis), giant foxtail (Setaria faberii), johnsongrass (Sorghum halepense), lambsquarters (Chenopodium album), morningglory (Ipomoea coccinea), yellow nutsedge (Cyperus esculentus), pigweed (Amaranthus retroflexus), ragweed (common ragweed, Ambrosia elatior), soybean (Glycine max), barnyardgrass (Echinochloa crus-galli), oilseed rape (Brassica napus), waterhemp (common waterhemp, Amaranthus rudis), kochia (Kochia scoparia), wild oat (Avena fatua), surinam grass (Brachiaria decumbens), foxtail, green (green foxtail, Setaria viridis), goosegrass (Eleusine indica), bromegrass, downy (downy bromegrass, Bromus tectorum), nightshade (eastern black nightshade, Solanum ptycanthum), cocklebur (common cocklebur, Xanthium strumarium), cupgrass, woolly (woolly cupgrass, Eriochloa villosa), bermudagrass (Cynodon dactylon), sunflower, (common oilseed sunflower, Helianthus annuus), Russian thistle (Salsola kali), and velvetleaf (Abutilon theophrasti) were planted into a blend of loam soil and sand and treated preemergence with test chemicals formulated in a non-phytotoxic solvent mixture which included a surfactant.
# (§4) At the same time, plants selected from these crop and weed species and also barley, winter (winter barley, Hordeum vulgare), windgrass (Apera spica-venti), chickweed (common chickweed, Stellaria media), deadnettle (henbit deadnettle, Lamium amplexicaule), and canarygrass (littleseed canarygrass, Phalaris minor) were planted in pots containing Redi-Earth® planting medium (Scotts Company, 14111 Scottslawn Road, Marysville, Ohio 43041) comprising spaghnum peat moss, vermiculite, wetting agent and starter nutrients and treated with postemergence applications of test chemicals formulated in the same manner. Plants ranged in height from 2 to 18 cm (1- to 4-leaf stage) for postemergence treatments. Treated plants and controls were maintained in a greenhouse for 13 to 15 days, after which time all species were compared to controls and visually evaluated. Plant response ratings, summarized in Table C, are based on a scale of 0 to 100 where 0 is no effect and 100 is complete control. A dash (-) response means no test result.
# pigweed = test: Test C preemergence; format: in vivo, Amaranthus retroflexus
# From the text: as §3, §4
# velvetleaf [4] = test: Test C preemergence; format: in vivo, Abutilon theophrasti
# Method in brief: as §2
# [5] = 500 g ai/ha, 0 to 100 scale where 0 is no effect and 100 is complete control
# [6] = 125 g ai/ha, 0 to 100 scale where 0 is no effect and 100 is complete control
# [7] = 16 g ai/ha, preemergence, scale 0 to 100 (0 no effect, 100 complete control)
# [8] = 125 g ai/ha, preemergence, scale 0 (no effect) to 100 (complete control)
# [9] = Preemergence, 62 g ai/ha, scale 0 to 100, 0 no effect, 100 complete control
# [10] = 62 g ai/ha, preemergence, scale 0 (no effect) to 100 (complete control)
# [11] = Preemergence, 31 g ai/ha, scale 0 to 100, 0 no effect, 100 complete control
compound,measurement,setting,value
CCOc1cnn(-c2ccccc2Oc2ncc(Cl)cn2)c1 [Compound 187],Velvetleaf plant response rating (0 to 100 scale),velvetleaf [1],80
same,Velvetleaf plant response rating,velvetleaf [1]; 500 g ai/ha,100
same,Corn plant response rating (0 to 100 scale),corn [2]; 125 g ai/ha,0
same,Corn plant response rating,corn [2]; [5],40
same,Wheat plant response rating,wheat; [6],20
same,"Plant response rating, Wheat",wheat; [5],60
same,"Plant response rating, Sedge, Umbrella","sedge, umbrella",50
same,Blackgrass plant response rating,blackgrass; [7],0
same,Blackgrass plant response rating,blackgrass; [8],100
same,"Plant response rating, Blackgrass",blackgrass; [9],30
same,Corn plant response rating,corn [3]; [7],0
same,Corn plant response rating,corn [3]; [8],5
same,"Plant response rating, Corn",corn [3]; [9],5
same,Pigweed plant response rating,pigweed; [7],45
same,Pigweed plant response rating,pigweed; [8],100
same,"Plant response rating, Pigweed",pigweed; [9],90
same,Velvetleaf plant response rating,velvetleaf [4]; [7],25
same,Velvetleaf plant response rating,velvetleaf [4]; [8],100
same,"Plant response rating, Velvetleaf",velvetleaf [4]; [9],95
Fc1cnc(Oc2cccc(C(F)F)c2-n2cc(Br)cn2)nc1 [Compound 112],"Plant response rating, Velvetleaf",velvetleaf [1],90
same,"Plant response rating, Corn",corn [2]; [6],0
same,Corn plant response rating,"corn [2]; 500 g ai/ha, 0 to 100 scale, 0 no effect, 100 complete control, approx. 10 days",50
same,"Plant response rating, Wheat",wheat; [5],70
same,"Plant response rating, Sedge, Umbrella","sedge, umbrella",85
same,Blackgrass plant response rating,blackgrass; [7],0
same,Blackgrass plant response rating,blackgrass; [10],40
same,Blackgrass plant response rating,blackgrass; [8],95
same,"Plant response rating, Blackgrass",blackgrass; [11],30
same,Corn plant response rating,corn [3]; [7],0
same,Corn plant response rating,corn [3]; [10],5
same,Corn plant response rating,corn [3]; [8],20
same,"Plant response rating, Corn",corn [3]; [11],0
same,Pigweed plant response rating,pigweed; [7],100
same,Pigweed plant response rating,pigweed; [10],100
same,Pigweed plant response rating,pigweed; [8],100
same,"Plant response rating, Pigweed",pigweed; [11],100
same,Velvetleaf plant response rating,velvetleaf [4]; [7],65
same,Velvetleaf plant response rating,velvetleaf [4]; [10],100
same,Velvetleaf plant response rating,velvetleaf [4]; [8],100
same,"Plant response rating, Velvetleaf",velvetleaf [4]; [11],70
"FC(F)(F)c1cnn(-c2ccccc2Oc2ncc(Br)cn2)c1 [Compound 18, 5-bromo-2-[2-[4-(trifluoromethyl)-1H-pyrazol-1-yl]phenoxy]pyrimidine]","Plant response rating, Velvetleaf",velvetleaf [1],90
same,pest or weed control at 500 g/ha,"velvetleaf [1]; Abutilon theophrasti, pre-emergence, 240 h, 500 g ai/ha, 0 to 100 scale, 0 no effect, 100 complete control, approx. 10 days, read-out: Velvetleaf plant response rating",90%
same,"Corn plant response rating (crop injury, 0 = no effect, 100 = complete kill) at 125 g/ha","corn [2]; Zea mays, pre-emergence, 240 h, 125 g ai/ha, 0 to 100 scale where 0 is no effect and 100 is complete control",0%
same,plant injury at 500 g/ha,"corn [2]; Zea mays, pre-emergence, 240 h, 500 g ai/ha, 0 to 100 scale, 0 no effect, 100 complete control, approx. 10 days, read-out: Corn plant response rating",10%
same,plant injury at 125 g/ha,"wheat; Triticum aestivum, post-emergence, 240 h, 125 g ai/ha, 0 to 100 scale where 0 is no effect and 100 is complete control, read-out: Plant response rating, Wheat",50%
same,plant injury at 500 g/ha,"wheat; Triticum aestivum, post-emergence, 240 h, 500 g ai/ha, 0 to 100 scale, 0 no effect, 100 complete control, read-out: Plant response rating Wheat",50%
same,pest or weed control at 250 g/ha,"sedge, umbrella; Cyperus difformis, read-out: Plant response rating, Sedge, Umbrella",90%
same,pest or weed control at 62 g/ha,"blackgrass; Alopecurus myosuroides, pre-emergence, 62 g ai/ha, preemergence, scale 0 (no effect) to 100 (complete control), read-out: Blackgrass plant response rating",80%
same,pest or weed control at 125 g/ha,"blackgrass; Alopecurus myosuroides, pre-emergence, 125 g ai/ha, preemergence, scale 0 (no effect) to 100 (complete control), read-out: Blackgrass plant response rating",90%
same,pest or weed control at 250 g/ha,"blackgrass; Alopecurus myosuroides, pre-emergence, 250 g ai/ha, preemergence, scale 0 (no effect) to 100 (complete control), read-out: Blackgrass plant response rating",90%
same,pest or weed control at 31 g/ha,"blackgrass; Alopecurus myosuroides, pre-emergence, Preemergence, 31 g ai/ha, scale 0 to 100, 0 no effect, 100 complete control, read-out: Plant response rating, Blackgrass",10%
same,plant injury at 62 g/ha,"corn [3]; Zea mays, pre-emergence, 62 g ai/ha, preemergence, scale 0 (no effect) to 100 (complete control), read-out: Corn plant response rating",10%
same,plant injury at 125 g/ha,"corn [3]; Zea mays, pre-emergence, 125 g ai/ha, preemergence, scale 0 (no effect) to 100 (complete control), read-out: Corn plant response rating",10%
same,plant injury at 250 g/ha,"corn [3]; Zea mays, pre-emergence, 250 g ai/ha, preemergence, scale 0 (no effect) to 100 (complete control), read-out: Corn plant response rating",35%
same,"Corn plant response rating (crop injury, 0 = no effect, 100 = complete kill) at 31 g/ha","corn [3]; Zea mays, pre-emergence, Preemergence, 31 g ai/ha, scale 0 to 100, 0 no effect, 100 complete control",0%
same,pest or weed control at 62 g/ha,"pigweed; Amaranthus retroflexus, pre-emergence, 62 g ai/ha, preemergence, scale 0 (no effect) to 100 (complete control), read-out: Pigweed plant response rating",100%
same,pest or weed control at 125 g/ha,"pigweed; Amaranthus retroflexus, pre-emergence, 125 g ai/ha, preemergence, scale 0 (no effect) to 100 (complete control), read-out: Pigweed plant response rating",100%
same,pest or weed control at 250 g/ha,"pigweed; Amaranthus retroflexus, pre-emergence, 250 g ai/ha, preemergence, scale 0 (no effect) to 100 (complete control), read-out: Pigweed plant response rating",100%
same,pest or weed control at 31 g/ha,"pigweed; Amaranthus retroflexus, pre-emergence, Preemergence, 31 g ai/ha, scale 0 to 100, 0 no effect, 100 complete control, read-out: Plant response rating, Pigweed",100%
same,pest or weed control at 62 g/ha,"velvetleaf [4]; Abutilon theophrasti, pre-emergence, 62 g ai/ha, preemergence, scale 0 (no effect) to 100 (complete control), read-out: Velvetleaf plant response rating",100%
same,pest or weed control at 125 g/ha,"velvetleaf [4]; Abutilon theophrasti, pre-emergence, 125 g ai/ha, preemergence, scale 0 (no effect) to 100 (complete control), read-out: Velvetleaf plant response rating",100%
same,pest or weed control at 250 g/ha,"velvetleaf [4]; Abutilon theophrasti, pre-emergence, 250 g ai/ha, preemergence, scale 0 (no effect) to 100 (complete control), read-out: Velvetleaf plant response rating",100%
same,pest or weed control at 31 g/ha,"velvetleaf [4]; Abutilon theophrasti, pre-emergence, Preemergence, 31 g ai/ha, scale 0 to 100, 0 no effect, 100 complete control, read-out: Plant response rating, Velvetleaf",60%
Fc1cccc(Oc2ncc(Cl)cn2)c1-n1cc(I)cn1 [Compound 179],Velvetleaf plant response rating (0 to 100 scale),velvetleaf [1],60
same,Velvetleaf plant response rating,velvetleaf [1]; 500 g ai/ha,80
same,"Plant response rating, Corn",corn [2]; [6],0
same,Corn plant response rating,corn [2]; [5],10
same,Wheat plant response rating,wheat; [6],30
same,"Plant response rating, Wheat",wheat; [5],60
same,"Plant response rating, Sedge, Umbrella","sedge, umbrella",85
same,Blackgrass plant response rating,blackgrass; [7],0
same,Blackgrass plant response rating,blackgrass; [10],40
same,Blackgrass plant response rating,blackgrass; [8],90
same,"Plant response rating, Blackgrass",blackgrass; [11],50
same,Corn plant response rating,corn [3]; [7],0
same,Corn plant response rating,corn [3]; [10],5
same,Corn plant response rating,corn [3]; [8],15
same,"Plant response rating, Corn",corn [3]; [11],5
same,Pigweed plant response rating,pigweed; [7],100
same,Pigweed plant response rating,pigweed; [10],100
same,Pigweed plant response rating,pigweed; [8],100
same,Velvetleaf plant response rating,velvetleaf [4]; [7],60
same,Velvetleaf plant response rating,velvetleaf [4]; [10],98
same,Velvetleaf plant response rating,velvetleaf [4]; [8],100
N#Cc1cnn(-c2c(CF)cccc2Oc2ncc(F)cn2)c1 [Compound 151],"Plant response rating, Wheat","wheat; 31 g ai/ha, 0 to 100 scale, 0 no effect, 100 complete control",20
same,Wheat plant response rating,wheat; [6],30
same,"Plant response rating, Sedge, Umbrella","sedge, umbrella",0
same,Blackgrass plant response rating,blackgrass; [7],0
same,Blackgrass plant response rating,blackgrass; [10],10
same,Blackgrass plant response rating,blackgrass; [8],90
same,"Plant response rating, Blackgrass",blackgrass; [11],0
same,Corn plant response rating,corn [3]; [7],0
same,Corn plant response rating,corn [3]; [10],15
same,Corn plant response rating,corn [3]; [8],70
same,"Plant response rating, Corn",corn [3]; [11],5
same,Pigweed plant response rating,pigweed; [7],100
same,Pigweed plant response rating,pigweed; [10],100
same,Pigweed plant response rating,pigweed; [8],100
same,Velvetleaf plant response rating,velvetleaf [4]; [7],85
same,Velvetleaf plant response rating,velvetleaf [4]; [10],100
same,Velvetleaf plant response rating,velvetleaf [4]; [8],100
